The source of these data is patent publication US20260306526A1, “COMBINATION THERAPY FOR BACTERIAL INFECTIONS COMPRISING ZINC-CHELATOR, BETA-LACTAM ANTIBIOTIC AND SERINE BETA-LACTAMASE INHIBITOR” (priority 2023, published 2026).

The test system of the assay is bacterial strain. Put plainly: MIC checkerboard assays, Examples 2 to 30 overall. The assay is classed as cell-based. As for the experimental part:
Thus, in most of the experiments, a Fractional Inhibitory Concentration Index (FICI) could not be calculated, and the conclusion of synergy was made through visual reading of the bacterial growth in the wells in the combination experiment.
Antimicrobial susceptibility testing (AST) by broth microdilution (MIC determination) was performed according to The European Committee on Antimicrobial Susceptibility Testing (EUCAST) guidelines (see Reading guide for broth microdilution Version 5.0, 2024: https://www.eucast.org).
Sterile clear round bottom polystyrene (non-treated) 96-well microplates (Corning 3788) were used for making serial two-fold dilutions of the antibiotic and the sBLI in cation-adjusted Mueller Hinton II broth (caMHB; Thermo Scientific, T3462, containing 29.4 μM Zn^2+), across the columns of the microtiter plate (256-0.06 μg/mL; columns 1-12). The checkerboard plates were all made by keeping the sBLI at a fixed ratio relative to antibiotic (absolute concentrations of each, in μg/mL) to all wells containing sample in each plate. Additionally, a set of samples was included in each test plate, where the zinc chelator was added, at various fixed concentrations, of 16 μg/mL, 8 μg/mL and/or 4 μg/mL (as specified in each Example). All sample wells contained growth medium (caMHB), and inoculated bacteria at a final inoculum between 3-7×10^5 CFU/mL. […]

With `CN(C[C@H](O)[C@@H](O)[C@H](O)[C@H](O)CO)C(=O)c1ccc(CN(Cc2ccccn2)Cc2ccccn2)nc1` [zinc chelator], the intrinsic antibiotic effect entry was “neither the zinc chelator nor the sBLI have intrinsic antibiotic effect”.
